{"source": "patent US9884040B2", "about": "“Desethylamiodarone for use in cancer treatment” (PÉCSI TUDOMÁNYEGYETEM, priority 2015, dated 2018)", "origin": "cited, not measured here", "conditions": "in vivo; cited from earlier work", "data": [{"molecule": "CCCCc1oc2ccccc2c1C(=O)c1cc(I)c(OCCN(CC)CC)c(I)c1", "note": "[amiodarone]", "values": [{"measurement": "Recommended therapeutic range", "result": "< 5.7", "unit": "µM"}]}]}
